This is an account of results in ChEMBL document CHEMBL4483862, “Open-source discovery of chemical leads for next-generation chemoprotective antimalarials” (2018).

Usually IC50 stands for the concentration at which inhibition is half-maximal. For orientation: IC90 means the concentration needed for an effect of 90%.

Where only a bound is given, the exact number is not on record here.

In the experiment the test system is Plasmodium berghei. The experiment can be described thus: Luciferase/luciferin-expressing antifolate-resistant parasites were used to infect a culture of HepG2 cells that were pre-incubated with compounds. Infected hepatocytes emit light due to the luciferase reaction. Assay results are presented as the percent inhibition of light emission compared to control. […]. The format is functional. The conditions noted are these: sporozoite; for IC90: read-out: LUCIFERASE INFECTION ASSAY - IC90.

Where [1] appears, read: read-out: LUCIFERASE INFECTION ASSAY - IC50.

`O=C1COc2ccc(-c3cs/c(=N\CCc4ccccc4)n3/N=C/c3ccc4ncccc4c3)cc2N1`: the 90% effect concentration (IC90) is over 10 µM. Besides, the IC50 (FFLUC_HILL_SLOPE 3.55, FFLUC_R_SQUARED 0.719, HEPG2TOX_HILL_SLOPE 3.57, HEPG2TOX_R_SQUARED 0.945, read-out: LUCIFERASE INFECTION ASSAY - IC50) was over 10 µM.
Take `O=C(c1nn(-c2ccccc2)c(=O)c2ccccc12)N1CCN(C2CCS(=O)(=O)C2)CC1` (stereo not given): the 90% effect concentration (IC90) is over 10 µM. Further, the IC50 under setting [1] is over 10 µM.
For the molecule `CCN(CC)c1ccc(Nc2nc(-c3sc(C)nc3C)cs2)cc1`, the IC90 was over 9.2 µM. The IC50 under setting [1] was over 9.2 µM.
With `CCOc1ccc(C(C)NC(=O)C(=O)c2c(C)nn(-c3ccccc3)c2C)cc1` (stereo not given), the IC90 worked out at 9.94 µM. Besides, the IC50 (HEPG2TOX_HILL_SLOPE 9.83, HEPG2TOX_R_SQUARED 0.28, PBLUC_HILL_SLOPE 22.8, PBLUC_R_SQUARED 0.679, read-out: LUCIFERASE INFECTION ASSAY - IC50) amounted to 9.03 µM.
`Fc1ccc(-c2c[n+](-c3ccccc3)c3n2CCCS3)cc1`: the concentration for an effect of 90% (IC90) is over 10 µM. In addition, the concentration for half-maximal inhibition (IC50) under setting [1] is over 10 µM.
Consider `CC(C)(C)c1ccc(C(=O)Nc2ccc(Oc3ccc(Cl)cc3)cc2)cc1`, for which the IC90 was over 8.69 µM. The IC50 under setting [1] is over 8.69 µM.
In the case of `Cc1cc(C)c(NC(=NC2CCCCC2)Nc2c(C)cc(C)cc2C)c(C)c1`, the IC90 was determined as 9.33 µM. For the same molecule, the half-inhibitory concentration (IC50) (PBLUC_HILL_SLOPE 26.1, PBLUC_R_SQUARED 0.486, read-out: LUCIFERASE INFECTION ASSAY - IC50) was 8.58 µM.
For the molecule `CC(C)NS(=O)(=O)c1cccc(CNc2ncnc3ccccc23)c1`, the IC90 turned out to be 2.34 µM. Besides, the IC50 (HEPG2TOX_HILL_SLOPE 0.638, HEPG2TOX_R_SQUARED 0.943, PBLUC_HILL_SLOPE 2.45, PBLUC_R_SQUARED 0.694, read-out: LUCIFERASE INFECTION ASSAY - IC50) came to 0.954 µM.
Take `Cc1nn(C)c2ncc(C(=O)Nc3ccc(F)c(Cl)c3)c(SC(C)C)c12`: the 90% effect concentration (IC90) was over 8.4 µM. For the same molecule, the concentration for half-maximal inhibition (IC50) under setting [1] is over 8.4 µM.
Take `COc1ccc(/C=C/C(=O)Nc2ccc(C34CC5CC(CC(O)(C5)C3)C4)cc2)cc1OC`: the IC90 worked out at 4.89 µM. The IC50 (HEPG2TOX_HILL_SLOPE 4.85, 2.53, HEPG2TOX_R_SQUARED 0.902, 0.960, PBLUC_HILL_SLOPE 2.45, PBLUC_R_SQUARED 0.68, read-out: LUCIFERASE INFECTION ASSAY - IC50) came to 1.99 µM.
Regarding `COc1cccc(Nc2nccc3[nH]c(-c4cc(OC)cc(OC)c4)cc23)c1`, the concentration for an effect of 90% (IC90) worked out at 1.74 µM. For the same molecule, the concentration for half-maximal inhibition (IC50) (HEPG2TOX_HILL_SLOPE 0.988, HEPG2TOX_R_SQUARED 0.934, PBLUC_HILL_SLOPE 2.38, PBLUC_R_SQUARED 0.617, read-out: LUCIFERASE INFECTION ASSAY - IC50) was 0.69 µM.
As for `O=C(NCc1ccc(S(=O)(=O)N2CCOCC2)s1)c1ccc(Cl)cc1`, the IC90 was over 8.23 µM. The IC50 under setting [1] is over 8.23 µM.
As to `Cc1cc(C(=O)COC(=O)c2ccc(Cl)cc2N)c(C)n1CC1CCCO1` (stereo not given), the IC90 was over 10 µM. Moreover, under setting [1], the 50% inhibitory concentration (IC50) is over 10 µM.
For the molecule `CC(C)(C)NC(=S)N/N=C/c1cc([N+](=O)[O-])ccc1O`, the IC90 is 11.1 µM. For the same molecule, for the setting “HEPG2TOX_HILL_SLOPE 9.08, HEPG2TOX_R_SQUARED 0.437, PBLUC_HILL_SLOPE 15.5, PBLUC_R_SQUARED 0.332, read-out: LUCIFERASE INFECTION ASSAY - IC50”, the IC50 was found to be 9.61 µM.
Take `CC(C#N)(NC(=O)CN1CCN(S(=O)(=O)c2ccc(Cl)s2)CC1)C1CC1` (stereo not given): the IC90 is over 10 µM. Besides, the 50% inhibitory concentration (IC50) (PBLUC_HILL_SLOPE 12.5, PBLUC_R_SQUARED 0.341, read-out: LUCIFERASE INFECTION ASSAY - IC50) amounted to 9.26 µM.
Consider `COC(=O)c1cc(OC)c(OC)cc1NS(=O)(=O)c1ccc(OC)cc1`, for which the 90% effect concentration (IC90) was over 8.65 µM. Moreover, the IC50 under setting [1] is 3.35 µM.
Take `O=C(c1cnc(Nc2cccc(C(F)(F)F)c2)[nH]1)c1ccccc1F`: the IC90 was over 9.45 µM. Where the note is “PBLUC_HILL_SLOPE 15.7, PBLUC_R_SQUARED 0.709, read-out: LUCIFERASE INFECTION ASSAY - IC50”, the IC50 came to 9.07 µM.
Take `CCCCCn1c(SCC(=O)Nc2sccc2C(N)=O)nc2sc3c(c2c1=O)CCC3`: the IC90 was over 10 µM. Moreover, where the note is “FFLUC_HILL_SLOPE 17.7, FFLUC_R_SQUARED 0.0867, read-out: LUCIFERASE INFECTION ASSAY - IC50”, the 50% inhibitory concentration (IC50) is over 10 µM.
On to `O=C(CC12CC3CC(CC(C3)C1)C2)NCC(=O)Nc1ccc2[nH]c(=O)[nH]c2c1`, for which the 90% effect concentration (IC90) is over 10 µM. The 50% inhibitory concentration (IC50) under setting [1] is over 10 µM.
Consider `Cc1nn(C(=O)c2c(Cl)cccc2Cl)c(C)c1Cc1c(F)cccc1Cl`, for which the IC90 is over 8.02 µM. The 50% inhibitory concentration (IC50) under setting [1] was found to be 7 µM.
On to `O=C(NC1CCN(c2nccc(C(F)(F)F)n2)CC1)c1cccs1`, for which the concentration for an effect of 90% (IC90) came to 4.85 µM. In addition, the IC50 (PBLUC_HILL_SLOPE 2.13, PBLUC_R_SQUARED 0.731, read-out: LUCIFERASE INFECTION ASSAY - IC50) was 1.72 µM.
As for `CN1C=C/C(=C/c2ccc3ccccc3[n+]2C)c2ccccc21`, the 90% effect concentration (IC90) was found to be 5.18 µM. Also, under setting [1], the IC50 was determined as 1.06 µM.
Turning to `CC(C)C(NC(=O)c1ccc(F)cc1)C(=O)NCC1Cc2ccccc21` (stereo not given), the IC90 is over 10 µM. In addition, for the setting “PBLUC_HILL_SLOPE 3.06, PBLUC_R_SQUARED 0.302, read-out: LUCIFERASE INFECTION ASSAY - IC50”, the IC50 worked out at 6.96 µM.
Turning to `CCS(=O)(=O)c1ncc(Cl)c(C(=O)Nc2cc(Cl)cc(Cl)c2)n1`, the IC90 amounted to 3.19 µM. Moreover, the IC50 (HEPG2TOX_HILL_SLOPE 4.63, HEPG2TOX_R_SQUARED 0.595, PBLUC_HILL_SLOPE 15.4, PBLUC_R_SQUARED 0.531, read-out: LUCIFERASE INFECTION ASSAY - IC50) stood at 2.76 µM.
Turning to `C=CCN(C(=O)c1ccccc1OCc1c(C)noc1C)c1nc2c(s1)CCCC2`, the concentration for an effect of 90% (IC90) was over 10 µM. The half-inhibitory concentration (IC50) under setting [1] is over 10 µM.
Take `CC1(C)CC(CCNCc2ccc(F)cc2)(Cc2ccccc2)CCO1` (stereo not given): the 90% effect concentration (IC90) worked out at 4.13 µM. For the same molecule, for the setting “HEPG2TOX_HILL_SLOPE 551, HEPG2TOX_R_SQUARED 0.482, PBLUC_HILL_SLOPE 3.65, PBLUC_R_SQUARED 0.507, read-out: LUCIFERASE INFECTION ASSAY - IC50”, the IC50 was found to be 2.26 µM.
Take `c1ccc(-c2csc3ncnc(NC4CCCCC4)c23)cc1`: the IC90 is 4.21 µM. In addition, the IC50 (HEPG2TOX_HILL_SLOPE 16.2, HEPG2TOX_R_SQUARED 0.468, PBLUC_HILL_SLOPE 9.94, 2.76, PBLUC_R_SQUARED 0.433, 0.667, read-out: LUCIFERASE INFECTION ASSAY - IC50) turned out to be 4.13 µM.
For `CC(=O)c1ccc(N2CCN(Cc3ccc(C)s3)CC2)cc1`, the 90% effect concentration (IC90) is over 10.5 µM. Moreover, the concentration for half-maximal inhibition (IC50) under setting [1] was over 10.5 µM.
In the case of `CCCCNC(=O)c1c(NC(=O)c2ccccc2)nc2ccccn12`, the 90% effect concentration (IC90) turned out to be 7.86 µM. In addition, the IC50 (FFLUC_HILL_SLOPE 2.02, FFLUC_R_SQUARED 0.16, HEPG2TOX_HILL_SLOPE 0.796, HEPG2TOX_R_SQUARED 0.541, PBLUC_HILL_SLOPE 4.74, PBLUC_R_SQUARED 0.419, read-out: LUCIFERASE INFECTION ASSAY - IC50) is 4.95 µM.
With `CSc1ccc(OC(=O)Nc2ccccc2)cc1`, the concentration for an effect of 90% (IC90) is over 12.7 µM. In addition, under setting [1], the IC50 was over 12.7 µM.
On to `Nc1nc(CN2CCN(Cc3cccc4cccnc34)CC2)nc2ccccc12`, for which the 90% effect concentration (IC90) was over 10 µM. In addition, the half-inhibitory concentration (IC50) under setting [1] is over 10 µM.
Take `CCn1c(SCc2nc3ccccc3c(=O)n2CC(N)=O)nnc1C1CC1`: the IC90 is over 10 µM. In addition, the IC50 under setting [1] is over 10 µM.
Regarding `COc1cc(NC(=O)N2CCc3nc(NCc4cccc(Oc5ccccc5)c4)ncc3C2)cc(OC)c1OC`, the IC90 is over 6.09 µM. For the same molecule, the IC50 (HEPG2TOX_HILL_SLOPE 6.86, HEPG2TOX_R_SQUARED 0.395, PBLUC_HILL_SLOPE 8.32, PBLUC_R_SQUARED 0.196, read-out: LUCIFERASE INFECTION ASSAY - IC50) was 5.31 µM.
Take `Cc1ccc(/C=C/c2ccc3ccccc3[n+]2C)cc1`: the IC90 is over 8.52 µM. Further, under “PBLUC_HILL_SLOPE 12.2, PBLUC_R_SQUARED 0.0729, read-out: LUCIFERASE INFECTION ASSAY - IC50”, the half-maximal inhibitory concentration (IC50) stood at 8.36 µM.
With `Cc1cc(-n2c(C)cc(C(=O)COc3ccccc3C#N)c2C)no1`, the 90% effect concentration (IC90) was over 10 µM. Moreover, under “PBLUC_HILL_SLOPE 4.77, PBLUC_R_SQUARED 0.224, read-out: LUCIFERASE INFECTION ASSAY - IC50”, the IC50 is 7.56 µM.
Consider `CC(C)(C)c1ccc(C(=O)NC(=S)NNC(=O)c2cccc([N+](=O)[O-])c2)cc1`, for which the IC90 turned out to be 3.57 µM. In addition, the half-maximal inhibitory concentration (IC50) (PBLUC_HILL_SLOPE 3.29, PBLUC_R_SQUARED 0.591, read-out: LUCIFERASE INFECTION ASSAY - IC50) is 1.83 µM.
`CCCCOC1(c2ccc(C)cc2)N=C(SCC(=O)NCC(C)C)NN=C1c1ccc(C)cc1` (stereo not given): the concentration for an effect of 90% (IC90) was over 10 µM. For the same molecule, where the note is “PBLUC_HILL_SLOPE 3.83, PBLUC_R_SQUARED 0.417, read-out: LUCIFERASE INFECTION ASSAY - IC50”, the IC50 stood at 6.12 µM.
Regarding `COc1cc(-c2cnc3cnc(-c4cnn(C)c4)cn23)ccc1O`, the IC90 worked out at 3.64 µM. The IC50 (HEPG2TOX_HILL_SLOPE 7.18, HEPG2TOX_R_SQUARED 0.736, PBLUC_HILL_SLOPE 4.69, PBLUC_R_SQUARED 0.709, read-out: LUCIFERASE INFECTION ASSAY - IC50) is 2.28 µM.
With `COC(=O)c1ccccc1SCC(C)=O`, the IC90 was over 14.7 µM. Also, for the setting “FFLUC_HILL_SLOPE 5.95, FFLUC_R_SQUARED 0.0707, PBLUC_HILL_SLOPE 4.71, PBLUC_R_SQUARED 0.0859, read-out: LUCIFERASE INFECTION ASSAY - IC50”, the IC50 was 14 µM.
As for `Cc1nn(Cc2ccccc2)c(Cl)c1C(=O)OC(C)C(=O)N1CCN(Cc2ccccc2)CC1` (stereo not given), the IC90 is over 10 µM. Also, under “HEPG2TOX_HILL_SLOPE 0.446, HEPG2TOX_R_SQUARED 0.649, read-out: LUCIFERASE INFECTION ASSAY - IC50”, the IC50 is over 10 µM.
